How the values were obtained:
[1] = tested on: recombinant human anti-SARS-CoV antibody 03-018; type: binding; set-up: Binding of antibody 03-018 to linear peptides of the N protein of SARS-CoV Urbani / Binding of antibody 03-018 to looped/cyclic peptides of the N protein of SARS-CoV Urbani: unit not given here
[2] = tested on: control sera (pooled serum of ten healthy LUMC hospital workers; commercial negative donor pooled serum from the Dutch bloodbank); type: binding, human; set-up: Binding of Control serum LUMC to linear peptides / Binding of Control serum Blood-bank to linear peptides / Binding of Control serum LUMC to looped peptides / Binding of Control Serum Blood-Bank to Looped peptides / Binding of Control serum LUMC to linear peptides of the protein M of SARS-CoV Urbani / Binding of Control serum Blood-bank to linear peptides of the protein M of SARS-CoV Urbani / Binding of Control serum LUMC to looped peptides of the protein M of SARS-CoV Urbani / Binding of Control Serum Blood-Bank to Looped peptides of the protein M of SARS-CoV Urbani: unit not given here
[3] = tested on: antibodies in sera from SARS patients (sera 1a, 1b, 2, 6, 37, 62, London, SARS-yellow, SARS-green); type: binding, human; set-up: Binding of serum 6 to linear peptides of protein X1 of SARS-CoV Urbani / Binding of serum 37 to linear peptides of protein X1 of SARS-CoV Urbani / Binding of serum 6 to looped/cyclic peptide (PEPSCAN-ELISA) / Binding of serum 37 to looped/cyclic peptide (PEPSCAN-ELISA) / Binding of serum 37 to looped/cyclic peptides of protein X1 of SARS-CoV Urbani / Binding of serum 6 to linear peptides of protein X2 / Binding of serum 37 to linear peptides of protein X2 / Binding of serum 37 to looped/cyclic peptides of protein X2 of SARS-CoV Urbani / Binding of serum 6 to linear peptides of protein M of SARS-CoV Urbani / Binding of serum 37 to linear peptides of protein M of SARS-CoV Urbani / Binding of serum 6 to looped/cyclic peptides of protein M of SARS-CoV Urbani / Binding of serum 37 to looped/cyclic peptides of protein M of SARS-CoV Urbani / Binding of serum 6 to linear peptides of protein X3 of SARS-CoV Urbani / Binding of serum 37 to linear peptides of protein X3 of SARS-CoV Urbani / Binding of serum 37 to looped/cyclic peptides of protein X3 of SARS-CoV Urbani / Binding of serum 6 to linear peptides of protein X4 of SARS-CoV Urbani / Binding of serum 37 to linear peptides of protein X4 of SARS-CoV Urbani / Binding of serum 37 to looped/cyclic peptides of protein X4 of SARS-CoV Urbani / Binding of serum 6 to linear peptides of protein X5 of SARS-CoV Urbani / Binding of serum 37 to linear peptides of protein X5 of SARS-CoV Urbani / Binding of serum 37 to looped/cyclic peptides of protein X5 of SARS-CoV Urbani / Binding of serum 6 to linear peptides of protein N of SARS-CoV Urbani / Binding of serum 37 to linear peptides of protein N of SARS-CoV Urbani / Binding of serum 6 to linear peptide (PEPSCAN-ELISA) / Binding of serum 1a to looped/cyclic peptides of protein N of SARS-CoV Urbani / Binding of serum 1b to looped/cyclic peptides of protein N of SARS-CoV Urbani / Binding of serum 2 to looped/cyclic peptides of protein N of SARS-CoV Urbani / Binding of serum 6 to looped/cyclic peptides of protein N of SARS-CoV Urbani / Binding of serum 37 to looped/cyclic peptides of protein N of SARS-CoV Urbani / Binding of serum 62 to looped/cyclic peptides of protein N of SARS-CoV Urbani / Binding of serum London to looped/cyclic peptides of protein N of SARS-CoV Urbani / Binding of serum SARS-green to looped/cyclic peptides of protein N of SARS-CoV Urbani: unit not given here
[4] = tested on: rabbit serum obtained by immunizing a rabbit with the SARS-CoV strain Frankfurt 1; type: binding; set-up: Binding of a rabbit serum to linear peptides / Binding of a rabbit serum to looped peptides / Rabbit serum linear peptides / Rabbit serum looped peptides / Binding of a rabbit serum to linear peptides of protein N of SARS-CoV Urbani (Rabbit serum linear peptides) / Binding of a rabbit serum to looped/cyclic peptides of protein N of SARS-CoV Urbani (Rabbit serum looped peptides): unit not given here

KVSGKGQQQQGQTVT
Binding of antibody 03-018 to linear peptides of the N protein of SARS-CoV Urbani [1]: 0.1
Binding of antibody 03-018 to looped/cyclic peptides of the N protein of SARS-CoV Urbani [1]: 0.2
Binding of Control Serum Blood-Bank to Looped peptides [2]: 0.6
Binding of Control serum Blood-bank to linear peptides [2]: 0.8
Binding of Control serum LUMC to linear peptides [2]: 0.7
Binding of Control serum LUMC to looped peptides [2]: 0.5
Binding of serum 1a to linear peptide (PEPSCAN-ELISA) [3]: 0.3
Binding of serum 1a to looped/cyclic peptides of protein N of SARS-CoV Urbani [3]: 0.3
Binding of serum 1b to linear peptide (PEPSCAN-ELISA) [3]: 0.1
Binding of serum 1b to looped/cyclic peptides of protein N of SARS-CoV Urbani [3]: 0.2
Binding of serum 2 to linear peptide (PEPSCAN-ELISA) [3]: 0.3
Binding of serum 2 to looped/cyclic peptides of protein N of SARS-CoV Urbani [3]: 0.5
Binding of serum 6 to linear peptide (PEPSCAN-ELISA) [3]: 0.2
Binding of serum 6 to looped/cyclic peptides of protein N of SARS-CoV Urbani [3]: 0.3
Binding of serum 37 to linear peptide (PEPSCAN-ELISA) [3]: 0.6
Binding of serum 37 to looped/cyclic peptides of protein N of SARS-CoV Urbani [3]: 0.4
Binding of serum 62 to linear peptide (PEPSCAN-ELISA) [3]: 0.6
Binding of serum 62 to looped/cyclic peptides of protein N of SARS-CoV Urbani [3]: 0.4
Binding of serum London to linear peptide (PEPSCAN-ELISA) [3]: 0.5
Binding of serum London to looped/cyclic peptides of protein N of SARS-CoV Urbani [3]: 0.6
Binding of serum SARS-green to linear peptide (PEPSCAN-ELISA) [3]: 0.6
Binding of serum SARS-green to looped/cyclic peptides of protein N of SARS-CoV Urbani [3]: 0.5
Binding of serum SARS-yellow to linear peptide (PEPSCAN-ELISA) [3]: 0.6
Binding of serum SARS-yellow to looped/cyclic peptides of protein N of SARS-CoV Urbani [3]: 0.3
Binding of a rabbit serum to linear peptides of protein N of SARS-CoV Urbani (Rabbit serum linear peptides) [4]: 0.2
Binding of a rabbit serum to looped/cyclic peptides of protein N of SARS-CoV Urbani (Rabbit serum looped peptides) [4]: 0.4

LALLLLDRLNQLESK
Binding of antibody 03-018 to linear peptides of the N protein of SARS-CoV Urbani [1]: 0.1
Binding of antibody 03-018 to looped/cyclic peptides of the N protein of SARS-CoV Urbani [1]: 0.2
Binding of Control Serum Blood-Bank to Looped peptides [2]: 0.7
Binding of Control serum Blood-bank to linear peptides [2]: 0.7
Binding of Control serum LUMC to linear peptides [2]: 0.6
Binding of Control serum LUMC to looped peptides [2]: 0.6
Binding of serum 1a to linear peptide (PEPSCAN-ELISA) [3]: 0.2
Binding of serum 1a to looped/cyclic peptides of protein N of SARS-CoV Urbani [3]: 0.3
Binding of serum 1b to linear peptide (PEPSCAN-ELISA) [3]: 0.1
Binding of serum 1b to looped/cyclic peptides of protein N of SARS-CoV Urbani [3]: 0.2
Binding of serum 2 to linear peptide (PEPSCAN-ELISA) [3]: 0.1
Binding of serum 2 to looped/cyclic peptides of protein N of SARS-CoV Urbani [3]: 0.4
Binding of serum 6 to linear peptide (PEPSCAN-ELISA) [3]: 0.1
Binding of serum 6 to looped/cyclic peptides of protein N of SARS-CoV Urbani [3]: 0.2
Binding of serum 37 to linear peptide (PEPSCAN-ELISA) [3]: 0.5
Binding of serum 37 to looped/cyclic peptides of protein N of SARS-CoV Urbani [3]: 0.5
Binding of serum 62 to linear peptide (PEPSCAN-ELISA) [3]: 0.5
Binding of serum 62 to looped/cyclic peptides of protein N of SARS-CoV Urbani [3]: 0.5
Binding of serum London to linear peptide (PEPSCAN-ELISA) [3]: 0.7
Binding of serum London to looped/cyclic peptides of protein N of SARS-CoV Urbani [3]: 0.4
Binding of serum SARS-green to linear peptide (PEPSCAN-ELISA) [3]: 0.4
Binding of serum SARS-green to looped/cyclic peptides of protein N of SARS-CoV Urbani [3]: 0.6
Binding of serum SARS-yellow to linear peptide (PEPSCAN-ELISA) [3]: 0.5
Binding of serum SARS-yellow to looped/cyclic peptides of protein N of SARS-CoV Urbani [3]: 0.4
Binding of a rabbit serum to linear peptides of protein N of SARS-CoV Urbani (Rabbit serum linear peptides) [4]: 0.1
Binding of a rabbit serum to looped/cyclic peptides of protein N of SARS-CoV Urbani (Rabbit serum looped peptides) [4]: 0.6

LESKVSGKGQQQQGQ
Binding of antibody 03-018 to linear peptides of the N protein of SARS-CoV Urbani [1]: 0.1
Binding of antibody 03-018 to looped/cyclic peptides of the N protein of SARS-CoV Urbani [1]: 0.3
Binding of Control Serum Blood-Bank to Looped peptides [2]: 0.8
Binding of Control serum Blood-bank to linear peptides [2]: 0.8
Binding of Control serum LUMC to linear peptides [2]: 0.7
Binding of Control serum LUMC to looped peptides [2]: 0.7
Binding of serum 1a to linear peptide (PEPSCAN-ELISA) [3]: 0.3
Binding of serum 1a to looped/cyclic peptides of protein N of SARS-CoV Urbani [3]: 0.4
Binding of serum 1b to linear peptide (PEPSCAN-ELISA) [3]: 0.1
Binding of serum 1b to looped/cyclic peptides of protein N of SARS-CoV Urbani [3]: 0.3
Binding of serum 2 to linear peptide (PEPSCAN-ELISA) [3]: 0.2
Binding of serum 2 to looped/cyclic peptides of protein N of SARS-CoV Urbani [3]: 0.7
Binding of serum 6 to linear peptide (PEPSCAN-ELISA) [3]: 0.1
Binding of serum 6 to looped/cyclic peptides of protein N of SARS-CoV Urbani [3]: 0.5
Binding of serum 37 to linear peptide (PEPSCAN-ELISA) [3]: 0.6
Binding of serum 37 to looped/cyclic peptides of protein N of SARS-CoV Urbani [3]: 0.7
Binding of serum 62 to linear peptide (PEPSCAN-ELISA) [3]: 0.6
Binding of serum 62 to looped/cyclic peptides of protein N of SARS-CoV Urbani [3]: 0.6
Binding of serum London to linear peptide (PEPSCAN-ELISA) [3]: 0.5
Binding of serum London to looped/cyclic peptides of protein N of SARS-CoV Urbani [3]: 1.8
Binding of serum SARS-green to linear peptide (PEPSCAN-ELISA) [3]: 0.4
Binding of serum SARS-green to looped/cyclic peptides of protein N of SARS-CoV Urbani [3]: 0.4
Binding of serum SARS-yellow to linear peptide (PEPSCAN-ELISA) [3]: 0.7
Binding of serum SARS-yellow to looped/cyclic peptides of protein N of SARS-CoV Urbani [3]: 0.7
Binding of a rabbit serum to linear peptides of protein N of SARS-CoV Urbani (Rabbit serum linear peptides) [4]: 0.1
Binding of a rabbit serum to looped/cyclic peptides of protein N of SARS-CoV Urbani (Rabbit serum looped peptides) [4]: 0.6

LGTGPEASLPYGANK
Binding of antibody 03-018 to linear peptides of the N protein of SARS-CoV Urbani [1]: 0.1
Binding of antibody 03-018 to looped/cyclic peptides of the N protein of SARS-CoV Urbani [1]: 0.2
Binding of Control Serum Blood-Bank to Looped peptides [2]: 0.5
Binding of Control serum Blood-bank to linear peptides [2]: 0.9
Binding of Control serum LUMC to linear peptides [2]: 0.9
Binding of Control serum LUMC to looped peptides [2]: 0.6
Binding of serum 1a to linear peptides of protein N of SARS-CoV Urbani [3]: 0.3
Binding of serum 1a to looped/cyclic peptides of protein N of SARS-CoV Urbani [3]: 0.3
Binding of serum 1b to linear peptides of protein N of SARS-CoV Urbani [3]: 0.1
Binding of serum 1b to looped/cyclic peptides of protein N of SARS-CoV Urbani [3]: 0.2
Binding of serum 2 to linear peptides of protein N of SARS-CoV Urbani [3]: 0.3
Binding of serum 2 to looped/cyclic peptides of protein N of SARS-CoV Urbani [3]: 0.5
Binding of serum 6 to linear peptides of protein N of SARS-CoV Urbani [3]: 0.2
Binding of serum 6 to looped/cyclic peptides of protein N of SARS-CoV Urbani [3]: 0.2
Binding of serum 37 to linear peptides of protein N of SARS-CoV Urbani [3]: 0.7
Binding of serum 37 to looped/cyclic peptides of protein N of SARS-CoV Urbani [3]: 0.5
Binding of serum 62 to linear peptides of protein N of SARS-CoV Urbani [3]: 0.7
Binding of serum 62 to looped/cyclic peptides of protein N of SARS-CoV Urbani [3]: 0.4
Binding of serum London to linear peptides of protein N of SARS-CoV Urbani [3]: 0.5
Binding of serum London to looped/cyclic peptides of protein N of SARS-CoV Urbani [3]: 0.4
Binding of serum SARS-green to linear peptides of protein N of SARS-CoV Urbani [3]: 0.5
Binding of serum SARS-green to looped/cyclic peptides of protein N of SARS-CoV Urbani [3]: 0.4
Binding of serum SARS-yellow to linear peptides of protein N of SARS-CoV Urbani [3]: 0.7
Binding of serum SARS-yellow to looped/cyclic peptides of protein N of SARS-CoV Urbani [3]: 0.5
Binding of a rabbit serum to linear peptides of protein N of SARS-CoV Urbani (Rabbit serum linear peptides) [4]: 0.2
Binding of a rabbit serum to looped/cyclic peptides of protein N of SARS-CoV Urbani (Rabbit serum looped peptides) [4]: 0.4

— patent US20070128217A1 (priority 2003, published 2007)
